Key:
[1] = target: ATP-binding cassette sub-family C member 3 (Mus musculus, UniProt B2RX12); experiment: (§1) TP_TRANSPORTER: quantitative PCR in vivo, liver of mouse; type: functional, organism-based
[2] = target: ATP-binding cassette sub-family C member 2 (Mus musculus, UniProt Q8VI47); experiment: as §1; type: functional, organism-based
ATP-binding cassette sub-family C member 2, sequence (Q8VI47 whole entry): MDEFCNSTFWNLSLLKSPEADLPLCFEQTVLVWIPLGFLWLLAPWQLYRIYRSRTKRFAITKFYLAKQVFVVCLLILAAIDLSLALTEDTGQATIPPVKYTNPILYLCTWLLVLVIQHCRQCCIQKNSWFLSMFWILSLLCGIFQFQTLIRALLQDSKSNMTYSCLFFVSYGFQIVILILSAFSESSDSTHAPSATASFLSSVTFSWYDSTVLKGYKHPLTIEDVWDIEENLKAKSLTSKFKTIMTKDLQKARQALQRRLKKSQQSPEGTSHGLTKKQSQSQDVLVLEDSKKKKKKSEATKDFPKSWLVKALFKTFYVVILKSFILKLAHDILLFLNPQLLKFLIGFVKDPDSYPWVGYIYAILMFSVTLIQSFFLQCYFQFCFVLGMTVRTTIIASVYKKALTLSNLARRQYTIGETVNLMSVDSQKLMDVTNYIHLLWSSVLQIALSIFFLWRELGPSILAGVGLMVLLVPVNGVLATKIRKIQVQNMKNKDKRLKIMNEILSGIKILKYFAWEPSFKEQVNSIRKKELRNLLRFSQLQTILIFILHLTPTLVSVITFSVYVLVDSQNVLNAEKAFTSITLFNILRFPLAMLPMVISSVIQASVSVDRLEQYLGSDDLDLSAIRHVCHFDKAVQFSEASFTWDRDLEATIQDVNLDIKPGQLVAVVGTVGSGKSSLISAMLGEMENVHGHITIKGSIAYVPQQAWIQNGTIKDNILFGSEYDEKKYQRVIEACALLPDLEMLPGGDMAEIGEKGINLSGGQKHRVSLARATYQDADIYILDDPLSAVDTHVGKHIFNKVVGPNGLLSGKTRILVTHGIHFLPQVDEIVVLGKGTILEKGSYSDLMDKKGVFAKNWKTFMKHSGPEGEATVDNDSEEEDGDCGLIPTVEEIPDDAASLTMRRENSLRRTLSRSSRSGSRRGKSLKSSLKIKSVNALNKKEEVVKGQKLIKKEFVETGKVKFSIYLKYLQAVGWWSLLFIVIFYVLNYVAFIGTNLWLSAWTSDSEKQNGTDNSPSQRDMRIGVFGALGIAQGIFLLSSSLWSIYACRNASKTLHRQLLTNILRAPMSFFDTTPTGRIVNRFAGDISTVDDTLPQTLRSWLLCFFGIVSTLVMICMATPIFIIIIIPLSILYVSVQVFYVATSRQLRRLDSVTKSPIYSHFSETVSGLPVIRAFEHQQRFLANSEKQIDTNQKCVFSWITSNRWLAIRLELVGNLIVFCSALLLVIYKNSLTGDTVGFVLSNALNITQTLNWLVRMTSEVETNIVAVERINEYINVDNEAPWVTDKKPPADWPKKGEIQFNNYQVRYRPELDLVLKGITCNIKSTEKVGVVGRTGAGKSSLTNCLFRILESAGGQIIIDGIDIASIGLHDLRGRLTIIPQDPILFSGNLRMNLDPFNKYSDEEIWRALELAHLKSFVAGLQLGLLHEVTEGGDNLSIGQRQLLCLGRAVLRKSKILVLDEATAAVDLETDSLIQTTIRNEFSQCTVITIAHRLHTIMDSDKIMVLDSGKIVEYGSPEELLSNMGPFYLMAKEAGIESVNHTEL

ATP-binding cassette sub-family C member 3, sequence (B2RX12 whole entry): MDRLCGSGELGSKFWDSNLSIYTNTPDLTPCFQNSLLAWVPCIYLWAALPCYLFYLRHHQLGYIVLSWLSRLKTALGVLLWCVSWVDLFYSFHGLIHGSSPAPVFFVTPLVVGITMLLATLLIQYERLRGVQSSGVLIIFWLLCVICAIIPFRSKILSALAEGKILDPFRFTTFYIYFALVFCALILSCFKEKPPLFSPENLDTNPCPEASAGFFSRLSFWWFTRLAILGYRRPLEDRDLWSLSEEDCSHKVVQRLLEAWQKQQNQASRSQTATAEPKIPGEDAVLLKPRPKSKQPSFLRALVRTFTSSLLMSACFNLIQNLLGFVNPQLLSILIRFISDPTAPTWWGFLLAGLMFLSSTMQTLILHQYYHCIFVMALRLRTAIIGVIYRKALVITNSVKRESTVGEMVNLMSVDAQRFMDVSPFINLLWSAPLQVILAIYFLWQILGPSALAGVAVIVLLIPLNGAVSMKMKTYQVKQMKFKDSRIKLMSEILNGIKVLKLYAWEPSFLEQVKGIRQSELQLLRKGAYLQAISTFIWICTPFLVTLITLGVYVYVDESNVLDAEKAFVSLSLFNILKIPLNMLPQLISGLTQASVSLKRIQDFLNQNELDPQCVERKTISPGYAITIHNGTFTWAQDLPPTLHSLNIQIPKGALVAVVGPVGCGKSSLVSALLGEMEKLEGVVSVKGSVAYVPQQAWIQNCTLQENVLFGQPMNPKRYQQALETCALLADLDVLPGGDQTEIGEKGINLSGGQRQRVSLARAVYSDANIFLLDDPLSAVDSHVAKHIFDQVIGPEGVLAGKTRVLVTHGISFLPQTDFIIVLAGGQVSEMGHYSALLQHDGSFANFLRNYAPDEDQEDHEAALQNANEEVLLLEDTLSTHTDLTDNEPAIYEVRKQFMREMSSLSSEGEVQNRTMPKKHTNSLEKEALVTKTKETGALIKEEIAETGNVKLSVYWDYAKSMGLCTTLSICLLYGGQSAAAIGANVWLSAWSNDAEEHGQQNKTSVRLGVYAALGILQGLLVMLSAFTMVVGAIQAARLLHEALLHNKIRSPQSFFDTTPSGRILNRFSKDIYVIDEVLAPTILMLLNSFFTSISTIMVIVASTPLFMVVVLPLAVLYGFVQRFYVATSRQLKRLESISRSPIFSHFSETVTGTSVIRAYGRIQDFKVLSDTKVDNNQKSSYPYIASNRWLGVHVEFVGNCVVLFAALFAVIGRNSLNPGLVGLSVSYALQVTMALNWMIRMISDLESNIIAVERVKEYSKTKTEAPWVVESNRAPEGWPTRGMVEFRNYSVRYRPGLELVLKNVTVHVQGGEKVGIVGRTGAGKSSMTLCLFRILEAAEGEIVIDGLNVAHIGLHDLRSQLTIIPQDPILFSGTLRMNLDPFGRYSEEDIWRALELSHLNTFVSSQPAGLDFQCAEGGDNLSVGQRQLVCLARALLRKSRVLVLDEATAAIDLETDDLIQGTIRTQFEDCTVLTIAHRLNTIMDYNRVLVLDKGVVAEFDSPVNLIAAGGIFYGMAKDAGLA

Row | SMILES | Activity [1] | Activity [2]
1 | C#C[C@]1(O)CC[C@H]2[C@@H]3CCC4=CC(=O)CCC4=C3[C@@H](c3ccc(N(C)C)cc3)C[C@]21C | inducer [] | inducer []
2 | Clc1ccccc1C(c1ccccc1)(c1ccccc1)n1ccnc1 [CLOTRIMAZOLE] | inducer [] | 
3 | C[C@H](CCC(=O)O)[C@H]1CC[C@H]2[C@@H]3CC[C@@H]4C[C@H](O)CC[C@]4(C)[C@H]3CC[C@]12C [LITHOCHOLIC ACID] | inducer [] | 
4 | CC(C)(C(=O)c1cccnc1)c1cccnc1 [METYRAPONE] | inducer [] | 
5 | COC(=O)C1=C(C)NC(C)=C(C(=O)OC)C1c1ccccc1[N+](=O)[O-] [NIFEDIPINE] | inducer [] | 
6 | CC(=O)[C@H]1[C@H](C#N)C[C@H]2[C@@H]3CC=C4C[C@@H](O)CC[C@]4(C)[C@H]3CC[C@@]21C [PREGNENOLONE CARBONITRILE] | inducer [] | 
7 | CO[C@H]1/C=C/O[C@@]2(C)Oc3c(C)c(O)c4c(O)c(c(/C=N/N5CCN(C)CC5)c(O)c4c3C2=O)NC(=O)/C(C)=C\C=C\[C@H](C)[C@H](O)[C@@H](C)[C@@H](O)[C@@H](C)[C@H](OC(C)=O)[C@@H]1C [RIFAMPIN] | inducer [] | 
